Assays:
[1] = biological target: hERG (human Ether-a-go-go Related Gene) (Homo sapiens (Human), UniProt Q12809)
MV4; 11 cells = experiment: Test 1: Test for evaluating the inhibition of cell proliferation; assay type: cell-based; conditions: cultured for 7 days, PrestoBlue cell viability
Procedure: MV4; 11 cells were obtained from American Type Culture Collection (ATCC). The cells were cultured at 37° C. in the presence of 5% CO2 in RPMI 1640 medium containing 10% fetal bovine serum and 1% penicillin/streptomycin.
The cells were plated to a 96-well plate in 2000 cells/well, each test compound was added thereto to adjust the final concentration of DMSO to 0.1% of DMSO, and the cells were cultured for 7 days. After the cultivation, the cell viability was calculated with PrestoBlue™ Cell Viability Reagent (Invitrogen, A13261).

hERG (human Ether-a-go-go Related Gene), sequence (Q12809 whole entry): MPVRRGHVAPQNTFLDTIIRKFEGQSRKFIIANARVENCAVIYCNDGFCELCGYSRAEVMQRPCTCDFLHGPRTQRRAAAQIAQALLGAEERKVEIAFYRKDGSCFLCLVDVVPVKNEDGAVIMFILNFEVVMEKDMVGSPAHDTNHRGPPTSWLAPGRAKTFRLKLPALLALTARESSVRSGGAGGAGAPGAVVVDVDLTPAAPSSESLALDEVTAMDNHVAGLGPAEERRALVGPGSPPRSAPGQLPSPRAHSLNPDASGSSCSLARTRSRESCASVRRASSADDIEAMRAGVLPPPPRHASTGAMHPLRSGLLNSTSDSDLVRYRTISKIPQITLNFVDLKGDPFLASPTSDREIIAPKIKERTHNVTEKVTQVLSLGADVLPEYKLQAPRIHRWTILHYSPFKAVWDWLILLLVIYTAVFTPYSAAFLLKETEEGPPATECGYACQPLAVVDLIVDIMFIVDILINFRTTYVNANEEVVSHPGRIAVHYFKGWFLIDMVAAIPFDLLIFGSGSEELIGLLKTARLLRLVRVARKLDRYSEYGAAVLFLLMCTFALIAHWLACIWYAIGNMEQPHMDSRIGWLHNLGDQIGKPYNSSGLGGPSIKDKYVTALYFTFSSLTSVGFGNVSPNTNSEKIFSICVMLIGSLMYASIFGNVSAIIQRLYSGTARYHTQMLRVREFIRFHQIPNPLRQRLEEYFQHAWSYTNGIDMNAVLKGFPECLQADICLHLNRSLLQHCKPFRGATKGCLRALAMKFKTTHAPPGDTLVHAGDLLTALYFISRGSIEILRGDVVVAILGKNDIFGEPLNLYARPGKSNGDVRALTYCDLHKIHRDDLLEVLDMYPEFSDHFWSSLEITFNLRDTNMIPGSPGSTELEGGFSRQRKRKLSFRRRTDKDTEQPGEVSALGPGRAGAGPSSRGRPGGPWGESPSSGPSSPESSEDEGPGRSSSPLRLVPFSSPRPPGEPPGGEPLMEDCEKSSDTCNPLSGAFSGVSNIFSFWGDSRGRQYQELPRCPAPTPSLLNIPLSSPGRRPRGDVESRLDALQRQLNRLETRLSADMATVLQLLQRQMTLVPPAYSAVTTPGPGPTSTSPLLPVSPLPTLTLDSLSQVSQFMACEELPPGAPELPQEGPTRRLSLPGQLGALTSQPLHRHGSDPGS

Substance: 5-fluoro-N-methyl-2-(3-{1-[(1S,3S,4R)-5-methylidene-2-azabicyclo[2.2.1]heptane-3-carbonyl]azepan-4-yl}-1H-pyrrolo[2,3-c]pyridin-1-yl)-N-(propan-2-yl)benzamide [Example 13]
- hERG/MV4; 11 [1]: 198
- IC50 (MV4; 11 cells): 0.13 µM

Substance: (3S)—N-[(1S)-3-(1-{4-fluoro-2-[methyl(propan-2-yl)carbamoyl]phenyl}-1H-pyrrolo[2,3-c]pyridin-3-yl)cyclohexyl]-2-azabicyclo[2.2.2]octane-3-carboxamide [Example 30]
- hERG/MV4; 11 [1]: 13
- IC50 (MV4; 11 cells): 0.55 µM
